In patent US20260034094A1, “COMPOSITIONS AND METHODS FOR INDUCING FERROPTOSIS” (Kojin Therapeutics, Inc., priority 2022, published 2026):
pEC50, pIC50: −log10 of the molar value. Several values for one entry are separate records, joined by “and”; a condition that tells them apart may be missing. Equal entries are not always repeated. Where two headings read alike, the source gives them in different places.

Columns and labels:
[1] = target: human recombinant GCL (Homo sapiens (Human), UniProt P48506); experiment: GCL enzyme profiling assay (ADP-Glo luminescence); assay type: biochemical; conditions: for pIC50: read-out: GCL IC50
Method: The GCL enzyme assay was run in 50 mM HEPES, pH 7.5, containing 150 mM NaCl, 30 mM MgCl2, 0.5 mM EDTA, 1 mM DTT, 0.1 mg/mL BSA, and 0.02% or in the present case 0.2% F-127 in a total assay volume of 10 μL or 10 mL. Compound in pure DMSO was stamped in assay plates (Greiner black 384-well) or appropriate containers using a D300e digital dispenser (TECAN) and the final DMSO concentration was normalized to 1%. A 5 mL, or in the present case, 5 μL mixture of human recombinant GCL (final concentration: 5 nM) and ATP (final concentration: 0.6 mM) was added and the solution was incubated at room temperature (22° C.) for 1 h. The GCL enzyme reaction was initiated by addition of a 5 μL mixture of mono g-glutamate or in the present example, monosodium glutamate (final concentration: 1 mM) and a-aminobutyrate or α-aminobutyrate (final concentration: 1.2 mM). The reaction was stopped after 1 h or in the present case, 2 h by addition of 5 mL, or in the present case, 5 μL ADP GLO Reagent (Promega). The resulting solution was incubated for 2 h at room temperature. This was then followed by addition of 5 mL, or in the present case, 5 μL ADP GLO Detection. After incubation at room temperature for 30 min, the plates were read on a plate reader (PheraStar) using a luminescence protocol to quantify the GCL enzyme activity from each reaction solution. The data was analyzed using a four-parameter logistic equation to calculate IC50.

[2] = test system: RKN cells; experiment: RKN cell profiling assay (cell viability, CellTiter-Glo); assay type: cell-based; conditions: read-out: Cell Killing EC50
Method in brief: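 Viability read by CellTiter-Glo luminescence after 96 h compound exposure (0.5% DMSO final) of cells plated at 1,000/well in 10% FBS F-12 and allowed 24 h attachment. Four-parameter fits gave EC50; rescue arms used ferrostatin-1, 1.5 μM, present from seeding.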

[3] = human recombinant GCL 5 nM, 1 h preincubation with ATP

Sequence of human recombinant GCL (P48506 whole entry): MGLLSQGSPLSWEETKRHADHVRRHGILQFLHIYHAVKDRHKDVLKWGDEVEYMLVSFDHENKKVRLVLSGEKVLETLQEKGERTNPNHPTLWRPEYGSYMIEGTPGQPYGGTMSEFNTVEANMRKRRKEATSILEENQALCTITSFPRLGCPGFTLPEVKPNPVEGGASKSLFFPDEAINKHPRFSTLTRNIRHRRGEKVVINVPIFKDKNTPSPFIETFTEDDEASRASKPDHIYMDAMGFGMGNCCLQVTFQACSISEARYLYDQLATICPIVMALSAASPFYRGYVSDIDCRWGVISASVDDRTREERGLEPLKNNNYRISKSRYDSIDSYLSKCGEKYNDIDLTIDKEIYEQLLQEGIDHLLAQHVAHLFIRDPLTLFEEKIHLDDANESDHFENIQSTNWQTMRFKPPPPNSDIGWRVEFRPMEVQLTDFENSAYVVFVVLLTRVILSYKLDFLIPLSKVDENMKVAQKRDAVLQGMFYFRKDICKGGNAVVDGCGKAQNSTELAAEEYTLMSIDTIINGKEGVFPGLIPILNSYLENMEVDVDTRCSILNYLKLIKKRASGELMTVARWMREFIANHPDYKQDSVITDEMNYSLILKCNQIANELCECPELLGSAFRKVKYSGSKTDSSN

| SMILES | pIC50 [1, 3] | pIC50 ([1]; human recombinant GCL, ADP-Glo) | IC50 ([1]; human recombinant GCL 5 nM, 1 h preincubation with ATP, read-out: GCL IC50 (mM), individual values in parentheses) | pEC50 ([2]; 96 h, 96 h exposure) | pEC50 ([2]; cell viability) |
| --- | --- | --- | --- | --- | --- |
| N=S(=O)(CC[C@H](N)C(=O)O)CCC1(C(=O)N2CCC2)CCC1 (some centres unmarked) [Compound 196] | 2.70 to 4.70 | – | – | ≤ 3.00 | – |
| N=S(=O)(CC[C@H](N)C(=O)O)CCC1(c2ccc(-c3ccc(Cl)cc3Cl)cc2)CCC1 (some centres unmarked) [Compound 402] | – | ≥ 4.70 | – | – | > 3.00 |
| CN(C)C(=O)C1(CCS(=N)(=O)CC[C@H](N)C(=O)O)CCC1 (some centres unmarked) [Compound 193] | 2.70 to 4.70 | – | – | ≤ 3.00 | – |
| CCCC(C)(C)OC(=O)[C@@H](N)CCS(=N)(=O)CCC(C)(C)C (some centres unmarked) [Compound 99] | < 2.70 | – | – | > 3.00 | – |
| CCCCS(=N)(=O)CC[C@H](N)C(=O)NS(=O)(=O)C1CC1 (some centres unmarked) [Compound 109] | 2.70 to 4.70 | – | – | ≤ 3.00 | – |
| N[C@@H](CCS(=O)(=O)NCC(O)(c1ccc(-c2ccccc2)cn1)C(F)(F)F)C(=O)O (stereo partly drawn) [Compound 514, (2S)-2-amino-4-(N-(3,3,3-trifluoro-2-hydroxy-2-(5-phenylpyridin-2-yl)propyl)sulfamoyl)butanoic acid] | – | 2.70 to 4.70 | – | – | ≤ 3.00 |
| N=S(=O)(CCCc1ccccc1)CC[C@H](N)C(=O)O (some centres unmarked) [Compound 51] | 2.70 to 4.70 | – | – | ≤ 3.00 | – |
| Cc1ccc(C(=O)O)cc1CCS(=N)(=O)CC[C@H](N)C(=O)O (some centres unmarked) [Compound 41] | 2.70 to 4.70 | – | – | ≤ 3.00 | – |
| N=S(=O)(CC[C@H](N)C(=O)O)CCC1(n2nccn2)CCC1 (stereo partly drawn) [Compound 405, (2S)-4-(2-(1-(2H-1,2,3-triazol-2-yl)cyclobutyl)ethylsulfonimidoyl)-2-aminobutanoic acid] | – | 2.70 to 4.70 | – | – | > 3.00 |
| N=S(=O)(C/C=C(\CC(F)(F)F)c1ccc(-c2ccc(Cl)cc2Cl)cc1)CC[C@H](N)C(=O)O (stereo partly drawn) [Compound 495, (2S)-2-amino-4-((E)-3-(2′, 4′-dichloro-[1, 1′-biphenyl]-4-yl)-5,5,5-trifluoropent-2-en-1-ylsulfonimidoyl) butanoic acid] | – | 2.70 to 4.70 | – | – | ≤ 3.00 |
| CC(C)(CCS(=N)(=O)CC[C@H](N)C(=O)O)Cc1ccccc1 (some centres unmarked) [Compound 65] | ≥ 4.70 | – | – | ≤ 3.00 | – |
| CCc1ccccc1CCS(=N)(=O)CC[C@H](N)C(=O)O (some centres unmarked) [Compound 33] | ≥ 4.70 | – | – | ≤ 3.00 | – |
| CC(C)(CCS(=N)(=O)CC[C@H](N)C(=O)O)c1ccc(F)cc1 (some centres unmarked) [Compound 58] | 2.70 to 4.70 | – | – | ≤ 3.00 | – |
| Cc1ccc(-c2ccc(C(O)(CCS(=N)(=O)CC[C@H](N)C(=O)O)C(F)(F)F)cc2C#N)cc1 (some centres unmarked) [Compound 452] | – | ≥ 4.70 | – | – | ≤ 3.00 |
| N=S(=O)(CC[C@H](N)C(=O)O)CCC1(c2ccc3[nH]ncc3c2)CCC1 (some centres unmarked) [Compound 394] | – | ≥ 4.70 | – | – | ≤ 3.00 |
| N=S(=O)(CCc1ccccc1Cl)CC[C@H](N)C(=O)O (some centres unmarked) [Compound 19] | ≥ 4.70 | – | – | > 3.00 | – |
| N[C@@H](CCS(=O)(=O)NCC(O)(c1ccc(-c2ccc(Cl)cc2Cl)cn1)C(F)(F)F)C(=O)O (stereo partly drawn) [Compound 513, (2S)-2-amino-4-(N-(2-(5-(2,4-dichlorophenyl)pyridin-2-yl)-3,3,3-trifluoro-2-hydroxypropyl)sulfamoyl)butanoic acid] | – | ≥ 4.70 | – | – | ≤ 3.00 |
| CCCCS(=N)(=O)CC[C@H](N)C(=O)NCC(N)=O (some centres unmarked) [Compound 112] | 2.70 to 4.70 | – | – | ≤ 3.00 | – |
| CC(C)(C)CCS(=N)(=O)CC[C@H](N)C(=O)Nc1ccccc1 (some centres unmarked) [Compound 118] | < 2.70 | – | – | > 3.00 | – |
| N=S(=O)(CC[C@H](N)C(=O)O)CCC1(c2ccc(-c3ccc(O)cc3Cl)cc2)CCC1 (some centres unmarked) [Compound 401] | – | ≥ 4.70 | – | – | ≤ 3.00 |
| CC1(CCS(=N)(=O)CC[C@H](N)C(=O)O)CCCCC1 (some centres unmarked) [Compound 300] | – | 2.70 to 4.70 | – | – | ≤ 3.00 |
| Cc1noc(C)c1CCS(=N)(=O)CC[C@H](N)C(=O)O (some centres unmarked) [Compound 35] | 2.70 to 4.70 | – | – | ≤ 3.00 | – |
| N=S(=O)(CC[C@H](N)C(=O)O)CCC1(n2ncc(-c3ccccn3)n2)CCC1 (some centres unmarked) [Compound 418] | – | 2.70 to 4.70 | – | – | ≤ 3.00 |

The next lines start with results.

| pIC50 [1, 3] | pIC50 ([1]; human recombinant GCL, ADP-Glo) | IC50 ([1]; human recombinant GCL 5 nM, 1 h preincubation with ATP, read-out: GCL IC50 (mM), individual values in parentheses) | SMILES | pEC50 ([2]; 96 h, 96 h exposure) | pEC50 ([2]; cell viability) |
| --- | --- | --- | --- | --- | --- |
| 2.70 to 4.70 | – | – | N#CC1(CCS(=N)(=O)CC[C@H](N)C(=O)O)CC1 (some centres unmarked) [Compound 151] | ≤ 3.00 | – |
| – | ≥ 4.70 | – | N#Cc1ccc(-c2ccc(C(CCS(=N)(=O)CC[C@H](N)C(=O)O)C(F)(F)F)cc2)cn1 (some centres unmarked) [Compound 244] | – | ≤ 3.00 |
| – | 2.70 to 4.70 | – | N=S(=O)(CC[C@H](N)C(=O)O)CCC(O)(C1CCCCC1)C(F)(F)F (some centres unmarked) [Compound 355] | – | ≤ 3.00 |
| 2.70 to 4.70 | – | – | CC(C)(CCS(=N)(=O)CC[C@H](N)C(=O)O)C(F)(F)F (some centres unmarked) [Compound 152] | > 3.00 | – |
| 2.70 to 4.70 | – | – | CC(C)(C)OC(=O)[C@@H](N)CC[S@@](=N)(=O)CCCC(F)(F)F [Compound 93] | > 3.00 | – |
| – | ≥ 4.70 | – | N=S(=O)(CCC(c1ccc(-c2ccccc2)cc1O)C(F)(F)F)CC[C@H](N)C(=O)O (stereo partly drawn) [Compound 391, (2S)-2-amino-4-(4,4,4-trifluoro-3-(3-hydroxy-[1,1′-biphenyl]-4-yl)butylsulfonimidoyl)butanoic acid] | – | > 3.00 |
| – | ≥ 4.70 | – | Cc1noc(C)c1-c1ccc(C(O)(CCS(=N)(=O)CC[C@H](N)C(=O)O)C(F)(F)F)cc1 (some centres unmarked) [Compound 448] | – | ≤ 3.00 |
| 2.70 to 4.70 | – | – | N=S(=O)(CCC1COC1)CC[C@H](N)C(=O)O (some centres unmarked) [Compound 181] | ≤ 3.00 | – |
| – | ≥ 4.70 | – | Cc1ccc(-c2ccc(C(O)(CCS(=N)(=O)CC[C@H](N)C(=O)O)C(F)(F)F)cc2)c(C)c1 (some centres unmarked) [Compound 438] | – | > 3.00 |
| – | ≥ 4.70 | – | N=S(=O)(CC[C@H](N)C(=O)O)CCC(O)(c1nc2ccccc2o1)C(F)(F)F (some centres unmarked) [compound 502] | – | > 3.00 |
| – | ≥ 4.70 | – | N=S(=O)(CC[C@H](N)C(=O)O)CCC(O)(C(F)(F)F)C(F)(F)F (some centres unmarked) [Compound 301] | – | > 3.00 |
| – | ≥ 4.70 | – | N=S(=O)(CCC(c1ccc(-c2cncc(F)c2)cc1)C(F)(F)F)CC[C@H](N)C(=O)O (some centres unmarked) [Compound 247] | – | ≤ 3.00 |
| – | < 2.70 | – | N=S(=O)(CC[C@@H](O)C(F)(F)F)CC[C@H](N)C(=O)O (single isomer, unassigned) [Compound 329] | – | ≤ 3.00 |
| ≥ 4.70 | – | – | N=S(=O)(CCC1CCC1)CC[C@H](N)C(=O)O (some centres unmarked) [Compound 165] | > 3.00 | – |
| – | 2.70 to 4.70 | – | CC1(CCCS(=N)(=O)CC[C@H](N)C(=O)O)COC1 (some centres unmarked) [Compound 312] | – | > 3.00 |
| 2.70 to 4.70 | – | – | N=S(=O)(CCC1CC(F)(F)C1)CC[C@H](N)C(=O)O (some centres unmarked) [Compound 161] | > 3.00 | – |
| – | 2.70 to 4.70 | – | N=S(=O)(CC[C@H](N)C(=O)O)CCC(O)(C(=O)O)C(F)(F)F (some centres unmarked) [Compound 333] | – | ≤ 3.00 |
| – | ≥ 4.70 | – | Cc1cc(F)ccc1-c1ccc(C(O)(CCS(=N)(=O)CC[C@H](N)C(=O)O)C(F)(F)F)nc1 (some centres unmarked) [Compound 479] | – | > 3.00 |
| 2.70 to 4.70 | – | – | CC(C)(CCS(=N)(=O)CC[C@H](N)C(=O)O)C(N)=O (some centres unmarked) [Compound 190] | ≤ 3.00 | – |
| 2.70 to 4.70 | – | – | CC(C)(F)CCS(=N)(=O)CC[C@H](N)C(=O)O (some centres unmarked) [Compound 163] | > 3.00 | – |
| 2.70 to 4.70 | – | – | CCC(CC(F)(F)F)CS(=N)(=O)CC[C@H](N)C(=O)O (some centres unmarked) [Compound 172] | ≤ 3.00 | – |
| – | 2.70 to 4.70 | – | CCC(C)(C)OC(=O)[C@@H](N)CCS(=N)(=O)CCCC(F)(F)F (some centres unmarked) [Compound 484] | – | > 3.00 |
| – | ≥ 4.70 | – | N=S(=O)(CC[C@H](N)C(=O)O)CCC(c1ccc(-c2ccc(Cl)cc2Cl)cc1)(C(F)(F)F)C(F)(F)F (some centres unmarked) [compound 510] | – | ≤ 3.00 |
| 2.70 to 4.70 | – | – | COCCS(=N)(=O)CC[C@H](N)C(=O)O (some centres unmarked) [Compound 164] | ≤ 3.00 | – |
| – | ≥ 4.70 | – | N#Cc1cccc(-c2ccc(C(CCS(=N)(=O)CC[C@H](N)C(=O)O)C(F)(F)F)cc2)c1F (some centres unmarked) [Compound 240] | – | ≤ 3.00 |
| ≥ 4.70 and 2.70 to 4.70 | – | 0.022 mM and 0.0183 mM | N=S(=O)(CCC(C(F)(F)F)C(F)(F)F)CC[C@H](N)C(=O)O (some centres unmarked) [Compound 186] | > 3.00 | – |
| – | 2.70 to 4.70 | – | N=S(=O)(CC[C@H](N)C(=O)O)CCC(O)(C1CCCC1)C(F)(F)F (some centres unmarked) [Compound 356] | – | ≤ 3.00 |
| – | ≥ 4.70 | – | N[C@@H](CCS(=O)(=O)CCC(O)(c1ccsn1)C(F)(F)F)C(=O)O (some centres unmarked) [Compound 371] | – | > 3.00 |
| 2.70 to 4.70 | – | – | N=S(=O)(CCc1cccc(OC(F)(F)F)c1)CC[C@H](N)C(=O)O (some centres unmarked) [Compound 4] | ≤ 3.00 | – |
| – | 2.70 to 4.70 | – | N=S(=O)(CCC(n1ccc(C2CC2)n1)C(F)(F)F)CC[C@H](N)C(=O)O (some centres unmarked) [Compound 413] | – | ≤ 3.00 |
